The term IC50 denotes the concentration that gives 50% inhibition.

The subject of data set [1] is human ovarian cancer cell line A2780. As to the kind of experiment: MTT cell viability assay, A2780. Type of data set: cell-based. The note with it: 48 h incubation, A2780 cells. An excerpt:
(§1) To identify anti-tumor constituents in Pueraria Flos, we examined the effects of the 25 isolates on the cell viability of the human ovarian cancer A2780 cell line using the MTT assay. […] To further evaluate the effect of the compounds on the cell viability of non-malignant ovarian epithelial cells, we explored the cytotoxicity of the eight compounds (8, 10, 11, 12, 14, 16, 17, and 21) against the immortalized human ovarian surface epithelial cell line IOSE80PC.
(§2) Human ovarian endometrioid adenocarcinoma cell line A2780 and immortalized ovarian surface epithelial cell line IOSE80PC were provided by Dr. Ie-Ming Shih (Johns Hopkins School of Medicine, Baltimore, MD, USA) and Dr. N. Auersperg (University of British Columbia, Vancouver, British Columbia, Canada), respectively. The cells were cultured in Roswell Park Memorial Institute (RPMI) 1640 supplemented with 5% fetal bovine serum (FBS), penicillin (100 U/mL), and streptomycin sulfate (100 μg/mL) in a 5% CO2 and 95% air humidified atmosphere at 37 °C. RPMI 1640, FBS, streptomycin sulfate, and penicillin were procured from Life Technologies Inc. (Grand Island, NY, USA). The cells were seeded at a density of 1.0 × 10^5 cells/mL in a 96-well plate containing 50 μL of RPMI medium in each well and incubated for 24 h. Various concentrations of compounds dissolved in dimethyl sulfoxide (DMSO) were mixed with RPMI 1640 medium and added into cells in each well. […] Following 48 h incubation, 50 μL of MTT (Molecular Probes Inc., Eugene, OR, USA) solution was added into each well to achieve a final concentration of 0.5 mg/mL and then incubated for an additional 4 h. The medium was discarded, and the formazan blue that formed in the cells was dissolved in 50 μL of DMSO. The optical density was measured at 540 nm by microplate spectrophotometer (SpectraMax; Molecular Devices, Sunnyvale, CA, USA). […] IC50 is defined as the concentration that reduces cell number by 50% compared to control cultures.
Background: Formazan colour is commonly taken as a measure of viable cells.

In data set [2] the test system is immortalized human ovarian surface epithelial cell line IOSE80PC. Description: MTT cell viability assay, IOSE80PC. Type of data set: cell-based. The note with it: 48 h incubation, IOSE80PC cells.
Text: as §1, §2

The test system of data set [3] is ovarian cancer cell line A2780. The arrangement: method as in PMID 18974065, PMID 19447105. The note with it: by suppressing the expression of Id1 and focal adhesion kinase; cited from earlier work.
The test system of data set [4] is ovarian cancer cell line OVCAR3. Further details: method as in PMID 19005980. To be noted: cited from earlier work.
The subject of a further data set is VEGF expression. Further details: method as in PMID 19005980. To be noted: cited from earlier work.
The test system of data set [5] is breast cancer cell line MCF-7. The arrangement: method as in PMID 27784319, PMID 15787436. To be noted: cited from earlier work.
Another data set concerns Lu1. Further details: method as in PMID 19026551. To be noted: cited from earlier work.
The next data set deals with LNCaP. Further details: method as in PMID 19026551. The note with it: cited from earlier work.
Another data set relates to MCF-7. Further details: method as in PMID 19026551. The note with it: cited from earlier work.
Data set [6] relates to murine lymphocytic leukemia (P-388). The arrangement: method as in doi:10.1016/0031-9422(93)85369-3, PMID 24018191. To be noted: cited from earlier work.
The subject of the next data set is (HEK293). The arrangement: method as in doi:10.1016/0031-9422(93)85369-3, PMID 24018191. To be noted: cited from earlier work.
In data set [7] the test system is colon adenocarcinoma (SW-480). The arrangement: method as in doi:10.1016/0031-9422(93)85369-3, PMID 24018191. The note with it: cited from earlier work.

On to `N.N.[Cl][Pt][Cl]` [Cisplatin, cisplatin, reference compound], for which the figures for the half-maximal inhibitory concentration (IC50) in data set [1] and in data set [2] were 10.7 ± 0.81 µM and 12.8 ± 0.55 µM, respectively.
As to `O=C1C[C@@](O)(c2ccc(O)cc2)Oc2cc(O)cc(O[C@@H]3O[C@H](CO)[C@@H](O)[C@H](O)[C@H]3O)c21` [Compound 6, 2-hydroxy-naringenin-5-O-β-D-glucopyranoside], in data set [1] (Homo sapiens, A2780, 48 h), the IC50 was above 100 µM.
As to `O=c1cc(-c2ccc(O)cc2)oc2cc(O)cc(O)c12` [Compound 8, apigenin], in [2] (Homo sapiens, IOSE-80PC), the IC50 was above 100 µM. In addition, the “proliferation and migration of A2780” value in data set [3] was “inhibits the proliferation and migration”.
As to `C[C@@H]1O[C@@H](OC[C@H]2O[C@@H](Oc3c(-c4ccc(O)cc4)oc4cc(O)cc(O)c4c3=O)[C@H](O)[C@@H](O)[C@@H]2O)[C@H](O)[C@H](O)[C@H]1O` [Compound 9, nicotiflorin], the IC50 in data set [1] (Homo sapiens, A2780, 48 h) is above 100 µM.
As to `O=c1c(-c2ccc(O)cc2)coc2cc(O)cc(O)c12` [Compound 10, genistein], the IC50 in data set [2] (Homo sapiens, IOSE-80PC) is above 100 µM. In data set [4], the “cell proliferation in OVCAR3” value is “inhibits cell proliferation”. Besides, the “VEGF expression in OVCAR3” value in the data set with VEGF expression is recorded as “downregulates VEGF expression”.
As for `COc1c(O)cc2occ(-c3ccc(O)cc3)c(=O)c2c1O` [Compound 11, tectorigenin], the half-inhibitory concentration (IC50) in data set [2] (Homo sapiens, IOSE-80PC) is above 100 µM.
On to `COc1c(O)cc2occ(-c3ccc(O)c(O)c3)c(=O)c2c1O` [Compound 12, irilin D], for which the concentration for half-maximal inhibition (IC50) was 57.5 ± 3.08 µM in [1]; below 100 µM in data set [1] (Homo sapiens, A2780, 48 h); above 100 µM in data set [2] (Homo sapiens, IOSE-80PC). Moreover, in data set [5], the “anticancer activity in MCF-7” value is “anticancer activity”.
The compound `COc1c(O[C@@H]2O[C@H](CO)[C@@H](O)[C@H](O)[C@H]2O)cc2occ(-c3ccc(O)cc3)c(=O)c2c1O` [Compound 13, tectoridin] yielded a half-maximal inhibitory concentration (IC50) in [1] (Homo sapiens, A2780, 48 h) above 100 µM.
With `COc1ccc(-c2coc3cc(OC4OC(CO)C(O)C(O)C4O)c(OC)c(O)c3c2=O)cc1` [Compound 14, irisolidone-7-O-β-D-glucopyranoside], the IC50 is 71.2 ± 11.3 µM in data set [1]; below 100 µM in [1] (Homo sapiens, A2780, 48 h); above 100 µM in [2] (Homo sapiens, IOSE-80PC).
As to `COc1c(OC2OC(COC3OCC(O)C(O)C3O)C(O)C(O)C2O)cc2occ(-c3ccc(O)cc3)c(=O)c2c1O` [Compound 15, tectorigenin-7-O-β-D-xylopyranosyl-(1→6)-O-β-D-glucopyronoside], in data set [1] (Homo sapiens, A2780, 48 h), the IC50 was above 100 µM.
`COc1cc2c(=O)c(-c3ccc(O)cc3)coc2cc1O` [Compound 16, glycitein] registered a half-maximal inhibitory concentration (IC50) in [2] (Homo sapiens, IOSE-80PC) above 100 µM.
For `COc1ccc(-c2coc3cc(O)c(OC)cc3c2=O)cc1` [Compound 17, afromosin], the IC50 in [2] (Homo sapiens, IOSE-80PC) is above 100 µM. In [5], the “anticancer activity in MCF-7” value is “anticancer activity”.
As for `COc1cc([C@@H]2Oc3ccc(-c4cc(=O)c5c(O)cc(O)cc5o4)cc3O[C@H]2CO)ccc1O` [Compound 21, (-)-hydnocarpin], in [2] (Homo sapiens, IOSE-80PC), the midpoint of inhibition, the IC50, lay at 65.8 ± 1.6 µM. Besides, the “cytotoxicity against Lu1” value in the data set with Lu1 is listed as “no cytotoxicity”. In addition, in the data set on LNCaP, the “cytotoxicity against LNCaP” value was “no cytotoxicity”. Besides, in the data set with MCF-7, the “cytotoxicity against MCF-7” value was “no cytotoxicity”. Moreover, the “antiproliferative activity against P-388” value in data set [6] is listed as “considerable antiproliferative activities”. Besides, in the data set on (HEK293), the “antiproliferative activity against HEK293” value was “considerable antiproliferative activities”. Also, in data set [7], the “antiproliferative activity against SW-480” value is given as “considerable antiproliferative activities”.
In the case of `C[C@@H]1O[C@@H](OC[C@H]2O[C@@H](OCc3ccccc3)[C@H](O)[C@@H](O)[C@@H]2O)[C@H](O)[C@H](O)[C@H]1O` [Compound 22, hydrageifolin I], the IC50 in data set [1] (Homo sapiens, A2780, 48 h) is above 100 µM.
For `O=c1c(O)c(-c2ccc(O)c(O)c2)oc2cc(O)cc(O)c12` [Quercetin, quercetin, reference compound], the IC50 in data set [1] (Homo sapiens, A2780, 48 h) was 19.4 ± 2.92 µM; in data set [2] (Homo sapiens, IOSE-80PC), above 100 µM.
